Test results: EPA's ToxRefDB 2

Tests used:
rat [1] = settings: Prenatal developmental toxicity study, sprague dawley, Oral, Gavage/Intubation, dose end: 15 GD
rat [2] = settings: Subchronic oral toxicity in rodents, sprague dawley, Feed, dose end: 3 month, group: systemic
dog [3] = settings: Subchronic oral toxicity in nonrodent, beagle, Feed, dose end: 13 week, group: systemic
mouse [4] = settings: Subchronic oral toxicity in rodents, cd1, Feed, dose end: 3 month, group: systemic
mouse [5] = settings: Carcinogenicity; cd1; Oral; Feed; dose end: 18 month; group: systemic; systemic / pathology microscopic / adrenal gland / eosinophilic focus + systemic / pathology microscopic / liver / hypertrophy + systemic / …
dog [6] = settings: Chronic toxicity, beagle, Oral, Feed, dose end: 1 year, group: systemic
rat [7] = settings: Multigenerational reproductive toxicity study, sprague dawley, Oral, Feed, dose end: 2 generation
rabbit = settings: Prenatal developmental toxicity study, new zealand white, Oral, Gavage/Intubation, dose end: 19 GD
dog [8] = settings: Chronic toxicity, beagle, Oral, Feed, dose end: 53 week, group: systemic
mouse [9] = settings: Combined chronic toxicity/carcinogenicity, cd1, Oral, Feed, dose end: 24 month, group: systemic
rat [10] = settings: Combined chronic toxicity/carcinogenicity, sprague dawley, Oral, Feed, dose end: 2 year, group: systemic
rat [11] = settings: Combined chronic toxicity/carcinogenicity; sprague dawley; Oral; Feed; dose end: 2 year; group: systemic; systemic / hematology / lymphocyte / lymphocyte + systemic / hematology / neutrophils / neutrophils + systemic / in life observation / body …
rat [12] = settings: Subchronic oral toxicity in rodents, sprague dawley, Feed, dose end: 90 day, group: systemic
dog [13] = settings: Chronic toxicity; beagle; Oral; Feed; dose end: 52 week; group: systemic; systemic / hematology / nucleated red blood cell (nrbc) / nucleated red blood cell (nrbc) + systemic / in life observation / clinical signs…
rat [14] = settings: Multigenerational reproductive toxicity study, sprague dawley, Oral, Feed, dose end: 2 generation; remark: listed apart in the source
[15] = group: developmental, developmental / developmental malformation / bone / cervical + developmental / developmental malformation / bone / short supernumerary
[16] = group: maternal, systemic / in life observation / clinical signs / fur (altered appearance) + systemic / in life observation / clinical signs / salivation
[17] = group: maternal, systemic / in life observation / clinical signs / fur (altered appearance) + systemic / in life observation / clinical signs / salivation + …
[18] = systemic / clinical chemistry / hepatic mixed function oxidase (mfo) assay / hepatic mixed function oxidase (mfo) assay
[19] = systemic / pathology microscopic / liver / hypertrophy
[20] = systemic / pathology microscopic / liver / hypertrophy + systemic / clinical chemistry / alkaline phosphatase (alp/alk) / alkaline …
[21] = systemic / pathology microscopic / adrenal gland / hypertrophy + systemic / pathology microscopic / liver / hypertrophy + systemic / …
[22] = systemic / organ weight / liver / relative to body weight
[23] = group: offspring, systemic / in life observation / body weight / offspring (pup) weight gain
[24] = group: offspring, systemic / in life observation / body weight / offspring (pup) weight gain + developmental / offspring survival late / viability index / …
[25] = group: parental, systemic / organ weight / liver / nos + systemic / organ weight / liver / relative to body weight + systemic / in life observation / food …
[26] = group: parental, systemic / organ weight / liver / nos + systemic / organ weight / liver / relative to body weight + systemic / pathology microscopic / liver…
[27] = group: reproductive, reproductive / offspring survival early / birth index / live birth index
[28] = group: developmental, developmental / offspring survival late / viability index / viability index
[29] = group: maternal, reproductive / reproductive performance / resorptions / resorptions + systemic / in life observation / body weight / body weight + systemic…
[30] = systemic / pathology microscopic / liver / hypertrophy + systemic / clinical chemistry / alanine aminotransferase (alt/sgpt) / alanine …
[31] = systemic / clinical chemistry / hepatic mixed function oxidase (mfo) assay / hepatic mixed function oxidase (mfo) assay + systemic / …
[32] = systemic / organ weight / testes / nos + systemic / pathology microscopic / testes / atrophy
[33] = systemic / organ weight / testes / nos + systemic / pathology microscopic / testes / atrophy + systemic / in life observation / body weight…
[34] = systemic / clinical chemistry / alanine aminotransferase (alt/sgpt) / alanine aminotransferase (alt/sgpt)
[35] = systemic / pathology gross / stomach / discolored + systemic / pathology gross / stomach / foci + systemic / pathology gross / stomach / …
[36] = group: offspring, systemic / in life observation / body weight / offspring (pup) weight + systemic / pathology gross / heart / enlarged + systemic / pathology…
[37] = group: parental, systemic / in life observation / clinical signs / dental fluorosis
[38] = group: parental, systemic / in life observation / clinical signs / dental fluorosis + systemic / in life observation / clinical signs / teeth whitening

CCCCC(C#N)(Cn1cncn1)c1ccc(Cl)cc1 (stereo not given) [Myclobutanil]
LEL (rat [1]; [15]): 313 mg/kg/day | LOAEL (rat [1]; [15]): 313 mg/kg/day | NEL (rat [1]; [15]): 93.8 mg/kg/day | NOAEL (rat [1]; [15]): 93.8 mg/kg/day | LEL (rat [1]; [16]): 313 mg/kg/day | LOAEL (rat [1]; [16]): 313 mg/kg/day | NEL (rat [1]; [17]): 93.8 mg/kg/day | NOAEL (rat [1]; [17]): 93.8 mg/kg/day | LEL (rat [2]; [18]): 15 mg/kg/day | NEL (rat [2]; [18]): < 15 mg/kg/day | LOAEL (rat [2]; systemic / organ weight / kidney / nos + systemic / organ weight / liver / nos): 150 mg/kg/day | NOAEL (rat [2]; systemic / organ weight / kidney / nos + systemic / organ weight / liver / nos + systemic / clinical chemistry / albumin-globulin ratio / …): 50 mg/kg/day | LOAEL (dog [3]; [19]): 5 mg/kg/day | NEL (dog [3]; [20]): 0.25 mg/kg/day | NOAEL (dog [3]; [20]): 0.25 mg/kg/day | LEL (dog [3]; systemic / pathology microscopic / liver / hypertrophy + systemic / pathology microscopic / kidney / inflammation): 5 mg/kg/day | LOAEL (mouse [4]; [21]): 150 mg/kg/day | NEL (mouse [4]; [21]): 45 mg/kg/day | NOAEL (mouse [4]; [21]): 45 mg/kg/day | LEL (mouse [4]; systemic / pathology microscopic / adrenal gland / hypertrophy + systemic / pathology microscopic / liver / necrosis + systemic / pathology …): 150 mg/kg/day | LEL (mouse [5]): 394 mg/kg/day | LOAEL (mouse [5]): 394 mg/kg/day | NEL (mouse [5]): < 394 mg/kg/day | NOAEL (mouse [5]): < 394 mg/kg/day | LEL (dog [6]; [22]): 0.4 mg/kg/day | NEL (dog [6]; [22]): < 0.4 mg/kg/day | LOAEL (dog [6]; [19]): 14.3 mg/kg/day | NOAEL (dog [6]; systemic / pathology microscopic / liver / hypertrophy + systemic / organ weight / liver / relative to body weight + systemic / organ weight…): 3.09 mg/kg/day | NEL (rat [7]; [23]): 10 mg/kg/day | NOAEL (rat [7]; [23]): 10 mg/kg/day | LEL (rat [7]; [24]): 50 mg/kg/day | LOAEL (rat [7]; [24]): 50 mg/kg/day | NEL (rat [7]; [25]): 2.5 mg/kg/day | NOAEL (rat [7]; [25]): 2.5 mg/kg/day | LEL (rat [7]; [26]): 10 mg/kg/day | LOAEL (rat [7]; [26]): 10 mg/kg/day | LEL (rat [7]; [27]): 10 mg/kg/day | LOAEL (rat [7]; [27]): 50 mg/kg/day | NEL (rat [7]; [27]): 2.5 mg/kg/day | NOAEL (rat [7]; [27]): 10 mg/kg/day | LEL (rabbit; [28]): 200 mg/kg/day | LOAEL (rabbit; [28]): 200 mg/kg/day | NEL (rabbit; [28]): 60 mg/kg/day | NOAEL (rabbit; [28]): 60 mg/kg/day | LEL (rabbit; [29]): 200 mg/kg/day | LOAEL (rabbit; [29]): 200 mg/kg/day | NEL (rabbit; [29]): 60 mg/kg/day | NOAEL (rabbit; [29]): 60 mg/kg/day | LOAEL (dog [8]; [19]): 14.3 mg/kg/day | NEL (dog [8]; [30]): 3.09 mg/kg/day | NOAEL (dog [8]; [30]): 3.09 mg/kg/day | LEL (dog [8]; systemic / pathology microscopic / liver / hypertrophy + systemic / hematology / mean corpuscular hemoglobin (mch) / mean corpuscular …): 14.3 mg/kg/day | LEL (mouse [9]; [18]): 16.5 mg/kg/day | LOAEL (mouse [9]; [18]): 16.5 mg/kg/day | NEL (mouse [9]; [31]): 3.2 mg/kg/day | NOAEL (mouse [9]; [31]): 3.2 mg/kg/day | LEL (rat [10]; [32]): 9.84 mg/kg/day | LOAEL (rat [10]; [32]): 9.84 mg/kg/day | NEL (rat [10]; [33]): 2.49 mg/kg/day | NOAEL (rat [10]; [33]): 2.49 mg/kg/day | LEL (rat [11]): 125 mg/kg/day | LOAEL (rat [11]): > 125 mg/kg/day | NEL (rat [11]): < 125 mg/kg/day | NOAEL (rat [11]): ≥ 125 mg/kg/day

[F][Al-3]([F])([F])([F])([F])[F].[Na+].[Na+].[Na+] [Cryolite]
LEL (rat [12]; [34]): 4.5 mg/kg/day | NEL (rat [12]; [34]): < 4.5 mg/kg/day | LOAEL (rat [12]; [35]): 399 mg/kg/day | NOAEL (rat [12]; [35]): 3.8 mg/kg/day | LEL (dog [13]): 95 mg/kg/day | LOAEL (dog [13]): 95 mg/kg/day | NEL (dog [13]): < 95 mg/kg/day | NOAEL (dog [13]): < 95 mg/kg/day | LOAEL (rat [14]; group: offspring, systemic / in life observation / body weight / offspring (pup) weight): 128 mg/kg/day | LEL (rat [14]; [36]): 128 mg/kg/day | NEL (rat [14]; [36]): 42 mg/kg/day | NOAEL (rat [14]; [36]): 42 mg/kg/day | LOAEL (rat [14]; [37]): 14 mg/kg/day | NOAEL (rat [14]; [37]): < 14 mg/kg/day | LEL (rat [14]; [38]): 14 mg/kg/day | NEL (rat [14]; [38]): < 14 mg/kg/day
